These results are taken from patent publication US20190375708A1 (VenatoRx Pharmaceuticals, Inc., priority 2018, published 2019).

Like-named read-outs stand apart in the source and are kept apart here.

The subject of series [1] is HBV replication in HepAD38 cells. Briefly: Anti-HBV replication assay in HepAD38 cells (QPCR of extracellular HBV DNA). To be noted: 7 days incubation, extracellular HBV DNA by QPCR, read-out: Anti-HBV EC50. The series is classed as cell-based, HBV (genotype D, serotype ayw). A digest of the protocol: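 Compounds (1 log10 serial dilutions, […]) were left 7 days on tetracycline-free HepAD38 cultures, a HepG2 line with tet-controlled HBV genotype D. EC50 came from 4-parameter regression of percent inhibition versus vehicle, using supernatant HBV DNA copies/mL measured by QPCR.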

Series [2] deals with HepG2 cells. Nature of the series: In vitro cytotoxicity assay (MTT cell viability) in HepG2 cells. The series is classed as cell-based, human. A digest of the protocol: (§1)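 HepG2 cells incubated 7 days at 37 °C, 5% CO2 with compounds from 30 μM to 1.0 nM (8 half-log dilutions). Viability read as MTT formazan absorbance at 492 nm, normalised to vehicle controls; CC50 from 4-parameter non-linear regression.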

Assay in series [3]: as above
The conditions noted are these: human. The series is classed as cell-based, human. The gist of the method: as §1

The subject of series [4] is HBV. The conditions noted are these: Phase 1b clinical trial, 600 mg bid dosing for 29 days; cited from earlier work.
The mark [5] stands for this setting: HepG2 cells, MTT cell viability, 7-day incubation, tested 30 μM to 1.0 nM, read-out: HepG2 CC50.

As for `Cc1c(C(=O)Nc2ccc(F)nc2)c(C)n(C)c1C(=O)C(=O)NC12C[C@@H]3C[C@@H](CC(O)(C3)C1)C2` [Example 16, N-(6-fluoropyridin-3-yl)-5-(2-(((1r,3s,5R,7S)-3-hydroxyadamantan-1-yl)amino)-2-oxoacetyl)-1,2,4-trimethyl-1H-pyrrole-3-carboxamide], in series [1], the EC50 – broadly, the concentration giving half of the maximal effect – was in the range of 50 to 499 nM. Moreover, the CC50 (commonly the concentration that lowers cell viability or growth by half) in series [2] (setting [5]) fell in the range of 5000 to 30000 nM. For `Cc1c(C(=O)Nc2ccc(F)nc2)c(C)n(C)c1C(=O)C(=O)N[C@]12C[C@@H]3C[C@@H](C[C@H]1C3)C2` [Example 19, N-(6-fluoropyridin-3-yl)-5-(2-(((2R,3as,5S,6as)-hexahydro-2,5-methanopentalen-3a(1H)-yl)amino)-2-oxoacetyl)-1,2,4-trimethyl-1H-pyrrole-3-carboxamide], in that order: less than 50 nM and 5000 to 30000 nM.

Turning to `Cc1cc(NC(=O)c2c(C)c(C(=O)C(=O)N[C@@H]3[C@@H]4C[C@@H]5C[C@H]3C[C@@](O)(C5)C4)n(C)c2C)ccc1F` [Example 74, N-(4-fluoro-3-methylphenyl)-5-(2-(((1R,2s,3S,5s,7s)-5-hydroxyadamantan-2-yl)amino)-2-oxoacetyl)-1,2,4-trimethyl-1H-pyrrole-3-carboxamide], the EC50 in series [1] is less than 50 nM. In addition, in series [2] (setting [5]), the CC50 was greater than 30000 nM.

As for `Cc1cc(NC(=O)c2c(C)c(C(=O)C3=Nc4ccccc4B(O)O3)n(C)c2C)ccc1F` [Example 256, N-(4-fluoro-3-methylphenyl)-5-(1-hydroxy-1H-enxo[c][1,5,2]oxazaborinine-3-carbonyl)-1,2,4-trimethyl-1H-pyrrole-3-carboxamide], the 50% effective concentration (EC50) in series [1] is 50 to 499 nM. Further, the CC50 in series [2] (setting [5]) lay in the range of 5000 to 30000 nM. Turning to `Cc1cc(NC(=O)c2c(Cl)c(C(=O)C(=O)NC3(CO)CC3)n3c2CCCC3)ccc1F` [Example 491, 2-chloro-N-(4-fluoro-3-methylphenyl)-3-(2-((1-(hydroxymethyl)cyclopropyrl)amino)-2-oxoacetyl)-5,6,7,8-tetrahydroindolizine-1-carboxamide], the EC50 in series [1] was less than 50 nM. The compound further yielded a CC50 in series [2] greater than 30000 nM. Regarding `Cc1c(C(=O)NC2CCC(F)(F)C2)c2n(c1C(=O)C(=O)NC(C)(C)CO)CCCC2` (stereo not shown) [Example 752, N-(3,3-difluorocyclopentyl)-3-(2-((1-hydroxy-2-methylpropan-2-yl)amino)-2-oxoacetyl)-2-methyl-5,6,7,8-tetrahydroindolizine-1-carboxamide], in series [1] (Hepatitis B virus, 168 h), the EC50 was in the range of 50 to 499 nM. Also, the CC50 at 7 days in series [3] was greater than 30000 nM. For `Cc1c(C(=O)NC2(C)CCCC2)c2n(c1C(=O)C(=O)NC(C)(C)CO)CCCC2` [Example 753, 3-(2-((1-hydroxy-2-methylpropan-2-yl)amino)-2-oxoacetyl)-2-methyl-N-(1-methylcyclopentyl)-5,6,7,8-tetrahydroindolizine-1-carboamide] the same measures were 50 to 499 nM and greater than 30000 nM. For `Cc1c(C(=O)NC2CCCC2)c2n(c1C(=O)C(=O)NC(C)(C)CO)CCCC2` [Example 754] the same measures were 50 to 499 nM and greater than 30000 nM.

Consider `Cc1c(C(=O)Nc2ccn(C)n2)c2n(c1C(=O)C(=O)NC(C)(C)CO)CCCC2` [Example 756, 3-(2-((1-hydroxy-2-methylpropan-2-yl)amino)-2-oxoacetyl)-2-methyl-N-(1-methyl-1H-pyrazol-3-yl)-5,6,7,8-tetrahydroindolizine-1-carboxamide], for which the concentration for a half-maximal effect (EC50) in series [1] (Hepatitis B virus, 168 h) is 50 to 499 nM. In series [3], this compound displayed a CC50 at 7 days greater than 30000 nM.

On to `Cc1c(C(=O)Nc2ncc(C(F)(F)F)s2)c2n(c1C(=O)C(=O)NC(C)(C)CO)CCCC2` [Example 757, 3-(2-((1-hydroxy-2-methylpropan-2-yl)amino)-2-oxoacetyl)-2-methyl-N-(5-(trifluoromethyl)thiazol-2-yl)-5,6,7,8-tetrahydroindolizine-1-carboxamide], for which the concentration for a half-maximal effect (EC50) in series [1] (Hepatitis B virus, 168 h) is 50 to 499 nM. The same compound returned a CC50 at 7 days in series [3] greater than 30000 nM. For `Cc1cnc(NC(=O)c2c(C)c(C(=O)C(=O)NC(C)(C)CO)n3c2CCCC3)s1` [Example 758, 3-(2-((1-hydroxy-2-methylpropan-2-yl)amino)-2-oxoacetyl)-2-methyl-N-(5-methylthiazol-2-yl)-5,6,7,8-tetrahydroindazoline-1-carboxamide] the same measures were 50 to 499 nM and greater than 30000 nM.

`Cc1c(C(=O)Nc2nccs2)c2n(c1C(=O)C(=O)NC(C)(C)CO)CCCC2` [Example 759, 3-(2-((1-hydroxy-2-methylpropan-2-yl)amino)-2-oxoacetyl)-2-methyl-N-(thiazol-2-yl)-5,6,7,8-tetrahydroindolizine-1-carboxamide]: the EC50 in series [1] (Hepatitis B virus, 168 h) is 50 to 499 nM. This compound also gave a CC50 at 7 days in series [3] greater than 30000 nM. Regarding `O=C(Nc1cc(F)c(F)c(F)c1)c1ccc(F)c(S(=O)(=O)N2CCC(O)CC2)c1` [NVR 3-778], the “reduction in HBV DNA” value in series [4] is on record as −1.7 log 10. Take “(S)-2-chloro-N-(4-fluoro-3- methylphenyl)-5-(2-((1- hydroxybutan-2-yl)amino)-2- oxoacetyl)-14-dimethyl-1H- pyrrole-3-carboxamide [Example 389]”: the EC50 in series [1] is greater than 1000 nM. The CC50 in series [2] (setting [5]) was 5000 to 30000 nM. For “(S)-4-chloro-N-(4-fluoro-3- methylphenyl)-5-(2-((1- hydroxybutan-2-yl)amino0-2- oxoacetyl)-1,2-dimethyl-1H- pyrrole-3-carboxamide [Example 368]”, in that order: 50 to 499 nM and greater than 30000 nM. Take “N-(4-fluoro-3-methylphenyl)-1,2,4-trimethyl-5-(2-(((1s,4s)-4-morpholinocyclohexyl)amino)-2-oxoacetyl)-1H-pyrrole-3-carboxamide [Example 265]”: the concentration for a half-maximal effect (EC50) in series [1] was in the range of 50 to 499 nM. In addition, the CC50 in series [2] (setting [5]) is greater than 30000 nM.
